Test results as given in patent US4690938A, “Anti-hypertensive agents” (University of Miami, priority 1979, dated 1987).
pIC50: −log10 of the molar value.

Columns and labels:
[1] = molecular target: T1, angiotensin converting enzyme (human urinary ACE) (Homo sapiens, UniProt P12821); assay: ACE activity assay: hydrolysis of Benzoyl-GlyHisLeu by ACE purified from human urine; type: biochemical; details: Benzoyl-GlyHisLeu 1×10^-4 M, pH 8.0, 37° C, read-out: I50
T1 construct: ACE purified from human urine; from tissue; host or cells: human urine
Excerpt: The role of ACE in the pathogenesis of hypertension has prompted a search for inhibitors of the enzyme that could act as antihypertensive drugs. See for example U.S. Pat. Nos. 3,891,616, 3,947,575, 4,052,511 and 4,053,651. […]. No. 4,046,889 to Ondetti et al., issued Sept. 6, 1977, and in scientific articles by Cushman, D. W. et al., Biochemistry 16, 5484 (1977), and by Ondetti, M. et al., Science 196, 441 (1977). […]. These factors include the source of enzyme, its purity, the substrate used and its concentration, and the composition of the assay buffer. All I50 data reported herein have been performed with the same assay system and same enzyme (human urinary ACE) and with an approximately 1/2 Km level of substrate and are therefore internally consistent. Discrepancies with data obtained by other workers may be observed. Indeed such discrepancies do exist in the literature, for unknown reasons. See, for example, the I50 values for BPP9a reported by Cushman, D. W., et al., Experientia 29, 1032 (1973) and by Dorer, F. E., et al., Biochim.Biophys.Acta 429, 220 (1976).
For most experiments described herein, the enzyme was assayed in 0.05M Hepes buffer, pH 8.0 containing 0.1M NaCl and 0.75M Na2 SO4. […]
The inhibitory potency of N^α-[ 3-(N^α -benzoylglycylthio)-2-D-L-proline in vitro was measured in the assay described in Example 1. […]

[2] = system: mean arterial blood pressure response to angiotensin I; assay: Intravenous effectiveness: blood pressure response to angiotensin I in anesthetized rats; type: in vivo, rat; details: i.v.; angiotensin I 400 ng/kg
Procedure: Rats (210-290 g body weight) were fasted overnight and then anesthetized with intraperitoneal pentobarbital, 50-60 mg/kg. Tracheostomy was performed and the animals were ventilated mechanically. A cannula was inserted into a femoral vein for injection of angiotensin I, and a second cannula was inserted into a common carotid artery for direct measurement of arterial blood pressure. Heparin, 1,000 units, was injected via the femoral vein to prevent coagulation. Blood pressure was measured with a pressure transducer connected to a polygraph. The rats were injected with […] of angiotensin I in 20 μl of 0.9 g % NaCl; an amount of angiotensin I sufficient to raise mean arterial blood pressure by 38 mm Hg. After the responsiveness of a given rat to angiotensin I was established, the named compound at 20 μmol/kg (drug dissolved in 0.15 ml of H2 O plus 10 μl of 1N NaHCO3), was given via a stomach tube. At timed intervals, the effects of 400 ng/kg of angiotensin I on mean arterial blood pressure were tested. Results are shown below:
Intravenous Effectiveness of N^α -[3-(N^α -benzoylglycylthio)-2-D-methylpropanoyl)-L-proline. Anesthetized rats were prepared as described in Example 20. The animals were administered the named compound via a femoral vein in 15 μl of 0.01 N sodium bicarbonate, after the control response to 400 ng/kg of angiotensin I was measured. […]

[3] = system: mean arterial blood pressure response to angiotensin I; assay: Oral effectiveness: blood pressure response to angiotensin I in anesthetized rats; type: in vivo, rat; details: angiotensin I 400 ng/ml in 20 μl of 0.9 g % NaCl (table: 400 ng/kg); control response before drug
Procedure: Rats (210-290 g body weight) were fasted overnight and then anesthetized with intraperitoneal pentobarbital, 50-60 mg/kg. Tracheostomy was performed and the animals were ventilated mechanically. A cannula was inserted into a femoral vein for injection of angiotensin I, and a second cannula was inserted into a common carotid artery for direct measurement of arterial blood pressure. Heparin, 1,000 units, was injected via the femoral vein to prevent coagulation. Blood pressure was measured with a pressure transducer connected to a polygraph. The rats were injected with 400 ng/ml of angiotensin I in 20 μl of 0.9 g % NaCl; an amount of angiotensin I sufficient to raise mean arterial blood pressure by 38 mm Hg. After the responsiveness of a given rat to angiotensin I was established, the named compound at 20 μmol/kg (drug dissolved in 0.15 ml of H2 O plus 10 μl of 1N NaHCO3), was given via a stomach tube. At timed intervals, the effects of 400 ng/kg of angiotensin I on mean arterial blood pressure were tested.

T1 sequence (P12821 30-1232 limits assumed): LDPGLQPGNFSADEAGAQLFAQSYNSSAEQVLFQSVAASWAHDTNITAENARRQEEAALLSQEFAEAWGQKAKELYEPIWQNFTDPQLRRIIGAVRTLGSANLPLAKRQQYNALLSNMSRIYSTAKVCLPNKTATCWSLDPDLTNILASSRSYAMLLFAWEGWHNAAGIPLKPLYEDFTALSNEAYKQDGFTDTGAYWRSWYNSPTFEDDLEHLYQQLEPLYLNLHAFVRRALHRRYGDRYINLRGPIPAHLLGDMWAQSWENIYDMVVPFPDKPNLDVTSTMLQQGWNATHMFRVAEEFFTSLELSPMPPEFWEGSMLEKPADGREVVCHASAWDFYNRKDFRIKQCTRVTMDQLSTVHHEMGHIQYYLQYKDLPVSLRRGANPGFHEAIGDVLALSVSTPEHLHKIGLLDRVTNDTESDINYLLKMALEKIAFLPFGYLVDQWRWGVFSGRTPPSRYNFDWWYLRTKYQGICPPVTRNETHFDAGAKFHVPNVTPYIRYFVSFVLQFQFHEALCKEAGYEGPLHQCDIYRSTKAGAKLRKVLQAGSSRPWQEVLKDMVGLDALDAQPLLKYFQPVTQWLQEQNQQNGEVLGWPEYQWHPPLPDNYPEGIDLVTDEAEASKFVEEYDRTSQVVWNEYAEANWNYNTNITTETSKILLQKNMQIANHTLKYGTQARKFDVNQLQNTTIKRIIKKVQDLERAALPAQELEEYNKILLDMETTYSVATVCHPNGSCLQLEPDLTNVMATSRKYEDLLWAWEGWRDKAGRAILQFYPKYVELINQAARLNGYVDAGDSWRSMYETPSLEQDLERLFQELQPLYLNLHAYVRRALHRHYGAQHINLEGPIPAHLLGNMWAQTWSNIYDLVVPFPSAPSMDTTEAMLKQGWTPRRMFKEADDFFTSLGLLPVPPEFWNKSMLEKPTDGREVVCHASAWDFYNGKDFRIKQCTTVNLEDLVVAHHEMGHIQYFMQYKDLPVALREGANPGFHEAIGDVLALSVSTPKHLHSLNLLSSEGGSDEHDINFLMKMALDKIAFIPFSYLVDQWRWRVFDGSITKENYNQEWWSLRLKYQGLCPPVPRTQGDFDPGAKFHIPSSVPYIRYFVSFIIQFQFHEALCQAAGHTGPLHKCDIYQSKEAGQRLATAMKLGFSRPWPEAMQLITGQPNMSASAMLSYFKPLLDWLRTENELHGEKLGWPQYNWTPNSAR

Row | Compound | pIC50 [1] | Blood pressure response to angiotensin I after intravenous administration (in words) [2] | Increase of mean arterial blood pressure by angiotensin I [3] [mm Hg]
1 | C[C@H](CSC(=O)CNC(=O)c1ccccc1)C(=O)N1CCC[C@H]1C(=O)O [Example 13, N^α -[3-(N^Δ -benzoylglycylthio)-2-D-methylpropanoyl]-L-proline] | 8.12 | rapid decrease of blood pressure response to angiotensin I, 400 ng/kg followed by a gradual rise to the pretreatment level of responsiveness | –
2 | angiotensin I: decapeptide angiotensin I, having the sequence AspArgValTyrlleHisProPheHisLeu (DRVYIHPFHL; Angiotensin-1; UniProt P01019 25-34, looked up) | – | – | 38
